How the values were obtained:
[1] = tested on: VEGF-stimulated cancer cell lines; experiment: VEGF-stimulated tumor cell proliferation, panel of cancer cell lines; type: cell-based; conditions: in vitro
[2] = tested on: FGF2 growth factor gene expression; experiment: FGF2 gene expression, AFFYMETRIX human arrays
collagen IV (CIV) = experiment: Plasma collagen IV (CIV) ELISA in patients; type: in vivo, human; conditions: for reduction in median CIV levels: regardless of FGF-2 status
Description: Plasma collagen IV (CIV) was measured using an enzyme-linked immunosorbent assay (ELISA) kit obtained from Biotrin International, Ltd. (Dublin, Ireland). […] Per the manufacturer's kit insert and instructions, the kit standards, QCs and EDTA plasma patient samples were diluted with conjugate (anti-collagen IV mouse Fab′ conjugated to horseradish peroxidase, containing 30 mg/l Proclin 300 as a preservative). Diluted samples were incubated for 30 minutes in wells coated with a second anti-collagen IV antibody, and then washed 3 times with kit wash buffer (phosphate buffer with Tween 20 and proclin 300 as a preservative. Ready to use TMB substrate was added and incubated for 30 minutes. The reaction was stopped by the addition of 1M H2SO4. The absorbance at 450 nm using 630 nm as a reference was measured using a SPECTRAMAX® plate reader (Molecular Devices, Sunnyvale, Calif.). Softmax Pro 4.8 software was used to generate a 4-parameter logistic (4-PL) curve fit using the CIV kit standards.

[3] = tested on: advanced or metastatic solid tumors; experiment: Phase 1 clinical study CA 182-002: tumor response and PFS by FGF2 status; type: in vivo, human; conditions: for patients with progressive disease / patients with a partial response or stable disease: after 56 days of treatment; for patients with a partial response or stable disease: WHO criteria; for median increase in tumor size from baseline: after two cycles of treatment (approximately 56 days)
From the text: All patients gave informed consent for the clinical trial and for this study, which was approved by the appropriate institutional review boards. Inclusion criteria include ECOG 0-1 (S. Javerzat et al., Trends Mol. Med., 8:483 (2002)), adequate bone marrow and hepatic function, and having tumor tissue block or 20 to 30 unstained slides of the initial biopsy available. Exclusion criteria included prior exposure to vascular endothelial growth factor (VEGF) inhibitors, presence of cardiovascular disease, thromboembolism, or bleeding in the last 6 months. All patients enrolled in the clinical trial had previously failed primary and secondary chemotherapy courses. […] Patients' response was measured by quantifying tumor size by contrast enhanced tomography (CT).
Tumor response was assesses using the modified WHO tumor response criteria. Lesions were evaluated by computed tomography (CT). Lesions were bidimensional and had at least one diameter of >2 cm on standard CT and >1 cm on spiral CT. For bidimensional measurements, the second diameter was perpendicular to the longest diameter. The area of lesion was calculated by multiplying the longest diameter by the greatest perpendicular diameter.
Tumor blocks were sectioned at 4 μm. Slides were de-paraffined and rehydrated in the LEICA® ST5020 Multistainer. Antigen retrieval was carried out by heating slides with Citra Plus Antigen retrieval solution (BioGenex, Cat # HK080-9K) in a BIOGENEX® EZ-Retriever Microwave at 95° C. for 15 minutes. The slides were then cooled at room temp for 5 minutes, and rinsed with distilled water for three times (˜1 minute each). Slides were immunostained in the i6000 Automated Staining System (BioGennex) using the following conditions: blocking with peroxide block (DAKO, Cat# K4007) for 5 minutes, followed by 5% goat serum for 30 mins, primary antibodies rabbit anti-fibroblast growth factor-2 (FGF-2) (Abcam Cat# #16828) 1:25 or rabbit immunoglobulin G (Rabbit IgG, LabVision, Cat# NC-100-P) 5 μg/ml were added and incubated for 1 hour, followed by Peroxidase Anti-Rabbit IgG (H+L) secondary antibody (Vector, Cat# PI-1000) at 1:200 dilution for 45 minutes. Chromogen substrate DAB (DAKO, Cat# K4007) was added and incubated for 5 minutes. Slides were counterstained with hematoxyline (DAKO cat#53309) for 1 minute. The stained slides were dehydrated and coverslipped in the LEICA® ST5020 Multistainer and assessed by a board-certified pathologist, without knowledge of patients' medical status.
To compare response rates between the FGF-2(+) and FGF-2(−) groups, a Fisher's exact test was used. To test for differences of percent changes from baseline in tumor between FGF-2(+) and FGF-2(−) groups, a non-parametric Wilcoxon rank-sum test was used (since the assumptions on the marginal distributions for the t-statistic were slightly violated for percent change from baseline, and small sample sizes could increase the test's vulnerability to assumption violations). The same method was applied to test for the difference in percent change from baseline of CIV at Day 8 and Day 26 between the two groups. In addition, a Rank-based ANCOVA was used to investigate the effect of the FGF-2 status on the post-baseline tumor volume, adjusted for the baseline tumor volume. All analyses were performed using R (Y. Shing et al., Science., 223:1296 (1984)).

GEO colon cancer model = experiment: Tumor growth inhibition in GEO colon cancer model; type: in vivo; conditions: compared to bevacizumab
VEGF gene expression = experiment: VEGF gene expression, AFFYMETRIX human arrays

[(1R),2S]-2-Aminopropionic acid 2-[4-(4-fluoro-2-methyl-1H-indol-5-yloxy)-5-methylpyrrolo[2,1-f][1,2,4]triazin-6-yloxy]-1-methylethyl ester [brivanib]
effect on tumor cell proliferation in the presence of VEGF [1]: no affect on tumor cell proliferation
modulation of FGF2 growth factor gene expression levels [2]: modulated FGF2 growth factor gene expression levels
reduction in median CIV levels (collagen IV (CIV); 320 mg, after 8 days): 2.6%
reduction in median CIV levels (collagen IV (CIV); 320 mg, after 26 days): 2.3%
reduction in median CIV levels (collagen IV (CIV); 800 mg, after 8 days): 24%
reduction in median CIV levels (collagen IV (CIV); 800 mg, after 26 days): 31%
COL IV change from baseline (%) (Day 26) (n = 42) (collagen IV (CIV); FGF2+ patients (n = 24)): −30%
COL IV change from baseline (%) (Day 26) (n = 42) (collagen IV (CIV); FGF2− patients (n = 19)): −16%
median decrease of CIV levels from baseline (collagen IV (CIV); patients with FGF2(−) tumors, after 8 days): 4.9%
median decrease of CIV levels from baseline (collagen IV (CIV); patients with FGF-2(+) tumors, after 8 days): 16.1%
median reduction from baseline in CIV levels (collagen IV (CIV); patients with FGF-2(+) tumors, after 26 days): 30.7%
median reduction from baseline in CIV levels (collagen IV (CIV); patients with FGF-2(−) tumors, after 26 days): 4.3%
tumor shrinkage from baseline, FGF2 staining vs negative staining tumors ([3]; Example 1 analysis of CA 182-002, not statistically significant): tend to have more shrinkage than the negative staining tumors
survival, FGF2 positive vs negative tumors (Kaplan-Meier) ([3]; Example 1 analysis of CA 182-002, p value 0.475): tended to have a survival advantage
Mean change in tumor size (%) (~8 wks) High (≧600 mg) (n = 26) ([3]; FGF2+ patients (n = 24)): 0.9%
Mean change in tumor size (%) (~8 wks) Low (<600 mg) (n = 17) ([3]; FGF2+ patients (n = 24)): 28%
Median PFS (days) High (≧600 mg) (n = 26) ([3]; FGF2+ patients (n = 24)): 107 days
Median PFS (days) Low (<600 mg) (n = 17) ([3]; FGF2+ patients (n = 24)): 71 days
PD, number of patients ([3]; FGF2+ patients (n = 24)): 9
PR, number of patients ([3]; FGF2+ patients (n = 24)): 2
Mean change in tumor size (%) (~8 wks) High (≧600 mg) (n = 26) ([3]; FGF2− patients (n = 19)): 24%
Mean change in tumor size (%) (~8 wks) Low (<600 mg) (n = 17) ([3]; FGF2− patients (n = 19)): 71%
Median PFS (days) High (≧600 mg) (n = 26) ([3]; FGF2− patients (n = 19)): 56 days
Median PFS (days) Low (<600 mg) (n = 17) ([3]; FGF2− patients (n = 19)): 54 days
PD, number of patients ([3]; FGF2− patients (n = 19)): 14
PR, number of patients ([3]; FGF2− patients (n = 19)): 0
reduction of tumor growth, FGF-2(+) compared with FGF-2(−) patients ([3]; patients with FGF-2(+) tumors): three-fold
patients with progressive disease ([3]; patients with FGF-2(+) tumors): 9 out of 24
patients with a partial response or stable disease ([3]; patients with FGF-2(+) tumors): 62.5%
median increase in tumor size from baseline ([3]; patients with FGF-2(+) tumors): 1%
patients with progressive disease ([3]; patients with FGF-2(−) tumors): 14 out of 19
median increase in tumor size from baseline ([3]; patients with FGF-2(−) tumors): 36%
patients with a partial response or stable disease ([3]; patients with FGF-2− tumors): 26.3%
ability to inhibit tumor growth (GEO colon cancer model): increased affect on the ability to inhibit tumor growth when compared to bevacizumab
modulation of VEGF gene expression levels (VEGF gene expression): modulated VEGF gene expression levels

— US20100234381A1, “BIOMARKERS AND METHODS FOR DETERMINING SENSITIVITY TO VASCULAR ENDOTHELIAL GROWTH FACTOR RECEPTOR-2 MODULATORS” (Bristol-Myers Squibb Company, priority 2007, published 2010)
